Patent US20090226500A1, “SUTURES AND ANTI-SCARRING AGENTS” (Angiotech Pharmaceuticals, Inc, priority 2006, published 2009)
Where a name gives a salt, the structure may show the parent alone. Read-outs that look alike come from different tables or passages of the source.

Experiments:
[1] = test system: IL-8 production by THP-1 cells; assay: IL-8 production by macrophages; assay type: cell-based, human; settings: THP-1 cells stimulated with opsonized zymosan, 24 hours, read-out: IC50 IL-8 production
Procedure: (§1) The human macrophage cell line, THP-1 was plated in a 12 well plate such that each well contains 1×10^6 cells in 2 ml of media containing 10% FCS. Opsonized zymosan was prepared by resuspending 20 mg of zymosan A in 2 ml of ddH2O and homogenizing until a uniform suspension was obtained. Homogenized zymosan was pelleted at 250 g, resuspended in 4 ml of human serum for a final concentration of 5 mg/ml, and incubated in a 37° C. water bath for 20 minutes to enable opsonization. Geldanamycin was prepared in DMSO at a concentration of 10^−2 M and serially diluted 10-fold to give a range of stock concentrations (10^−8 M to 10^−2 M).
(§2) THP-1 cells were stimulated to produce IL-8 by the addition of 1 mg/ml opsonized zymosan. Geldanamycin was added to THP-1 cells by directly adding DMSO stock solutions, prepared earlier, at a 1/1000 dilution, to each well. Each drug concentration was tested in triplicate wells. Plates were incubated at 37° C. for 24 hours.
After a 24-hour stimulation, supernatants were collected to quantify IL-8 production. IL-8 concentrations in the supernatants were determined by ELISA using recombinant human IL-8 to obtain a standard curve. A 96-well MAXISORB plate was coated with 100 μL of anti-human IL-8 Capture Antibody diluted in Coating Buffer (0.1M sodium carbonate pH 9.5) overnight at 4° C. The dilution of Capture Antibody used was lot-specific and was determined empirically. Capture antibody was then aspirated and the plate washed 3 times with Wash Buffer (PBS, 0.05% TWEEN-20). Plates were blocked for 1 hour at room temperature with 200 μL/well of Assay Diluent (PBS, 10% FCS pH 7.0). After blocking, plates were washed 3 times with Wash Buffer. Standards and sample dilutions were prepared as follows: (a) sample supernatants were diluted 1/100 and 1/1000; (b) recombinant human IL-8 was prepared at 200 pg/ml and serially diluted to yield as standard curve of 3.1 pg/ml to 200 pg/ml Sample supernatants and standards were assayed in triplicate and were incubated at room temperature for 2 hours after addition to the plate coated with Capture Antibody The plates were washed 5 times and incubated with 100 μL of Working Detector (biotinylated anti-human IL-8 detection antibody+avidin-HRP) for 1 hour at room temperature. Following this incubation, the plates were washed 7 times and 100 μL of Substrate Solution (Tetramethylbenzidine, H2O2) was added to plates and incubated for 30 minutes at room temperature. Stop Solution (2 NH2SO4) was then added to the wells and a yellow color reaction was read at 450 nm with A correction at 570 nm. Mean absorbance was determined from triplicate data readings and the mean background was subtracted. IL-8 concentration values were obtained from the standard curve. […] The IC50 values for the following additional compounds were determined using this assay: IC50 (nM): 17-AAG, 56; mycophenolic acid, 549; resveratrol, 507; rapamycin, 4; 41; SP600125, 344; halofuginone, 641; D-mannose-6-phosphate, 220; epirubicin hydrochloride, 654; topotemay, 257; mithramycin, 33; daunorubicin, 421; celastrol, 490; chromomycin A3, 36

[2] = test system: MCP-1 production by THP-1 cells; assay: MCP-1 production by macrophages; assay type: cell-based, human; settings: read-out: IC50 MCP-1 production
Procedure: as §1, with “g and” for “g,”, “mg/ml” for “mg/ml,”
as §2, with “MCP-1” for “IL-8”, “[…]” for “Geldanamycin”
After a 24-hour stimulation, supernatants were collected to quantify MCP-1 production. MCP-1 concentrations in the supernatants were determined by ELISA using recombinant human MCP-1 to obtain a standard curve. A 96-well MaxiSorb plate was coated with 100 μL of anti-human MCP-1 Capture Antibody diluted in Coating Buffer (0.1M sodium carbonate pH 9.5) overnight at 4° C. The dilution of Capture Antibody used was lot-specific and was determined empirically. Capture antibody was then aspirated and the plate washed 3 times with Wash Buffer (PBS, 0.05% TWEEN-20). Plates were blocked for 1 hour at room temperature with 200 μL/well of Assay Diluent (PBS, 10% FCS pH 7.0). After blocking, plates were washed 3 times with Wash Buffer. […] Sample supernatants and standards were assayed in triplicate and were incubated at room temperature for 2 hours after addition to the plate coated with Capture Antibody. The plates were washed 5 times and incubated with 100 μL of Working Detector (biotinylated anti-human MCP-1 detection antibody+avidin-HRP) for 1 hour at room temperature. Following this incubation, the plates were washed 7 times and 100 μL of Substrate Solution (tetramethylbenzidine, H2O2) was added to plates and incubated for 30 minutes at room temperature. […] Mean absorbance was determined from triplicate data readings and the mean background was subtracted. MCP-1 concentration values were obtained from the standard curve.

[3] = test system: IL-1β production by THP-1 cells; assay: IL-1β production by macrophages; assay type: cell-based, human; settings: read-out: IC50 IL-1β production
[4] = test system: TNFα production by THP-1 cells; assay: TNF-alpha production by macrophages; assay type: cell-based, human; settings: read-out: IC50 TNFα production
Procedure: as §1, with “12-well” for “12 well”, “g and” for “g,”, “mg/ml” for “mg/ml,”, “opsonization.” for “opsonization. Geldanamycin was prepared in DMSO at a concentration of 10^−2 M and serially diluted 10-fold to give a range of stock concentrations (10^−8 M to 10^−2 M).”
THP-1 cells were stimulated to produce TNFα by the addition of 1 mg/ml opsonized zymosan. […] Each drug concentration was tested in triplicate wells. Plates were incubated at 37° C. for 24 hours.
After a 24-hour stimulation, supernatants were collected to quantify TNFα production. TNFα concentrations in the supernatants were determined by ELISA using recombinant human TNFα to obtain a standard curve A 96-well MaxiSorb plate was coated with 100 μL of anti-human TNFα Capture Antibody diluted in Coating Buffer (0.1M sodium carbonate pH 9 5) overnight at 4° C. The dilution of Capture Antibody used was lot-specific and was determined empirically. Capture antibody was then aspirated and the plate washed 3 times with Wash Buffer (PBS, 0.05% TWEEN-20) Plates were blocked for 1 hour at room temperature with 200 μL/well of Assay Diluent (PBS, 10% FCS pH 7.0). After blocking, plates were washed 3 times with Wash Buffer. […] Sample supernatants and standards were assayed in triplicate and were incubated at room temperature for 2 hours after addition to the plate coated with Capture Antibody. The plates were washed 5 times and incubated with 100 μL of Working Detector (biotinylated anti-human TNFα detection antibody+avidin-HRP) for 1 hour at room temperature. Following this incubation, the plates were washed 7 times and 100 μL of Substrate Solution (tetramethylbenzidine, H2O2) was added to plates and incubated for 30 minutes at room temperature. […] Mean absorbance was determined from triplicate data readings and the mean background was subtracted. TNFα concentration values were obtained from the standard curve.

E. coli UB1005 C498 = assay: MIC microtitre broth dilution, E. coli; assay type: cell-based; settings: E. coli UB1005 C498 wt Gram−, 24 h
Procedure: (§3) MIC assays were conducted essentially as described by Amsterdam, D 1996, “Susceptibility testing of antimicrobials in liquid media”, p. 52-111, in Loman, V, ed. Antibiotics in laboratory medicine, 4th ed Williams and Wilkins, Baltimore, Md.

S. epidermidis C621 = assay: MIC microtitre broth dilution, S. epidermidis; assay type: cell-based; settings: S. epidermidis C621 wt Gram+, 24 h
Procedure: as §3

[5] = test system: K. pneumoniae ATCC13883 C238; assay: MIC microtitre broth dilution, K. pneumoniae; assay type: cell-based; settings: K. pneumoniae ATCC13883 C238 wt Gram−, 24 h
Procedure: as §3

[6] = test system: P. aeruginosa PAE/K799 H187; assay: MIC microtitre broth dilution, P. aeruginosa; assay type: cell-based; settings: P. aeruginosa PAE/K799 H187 wt Gram−, 24 h
Procedure: as §3

S. aureus ATCC25923 C622 = assay: MIC microtitre broth dilution, S. aureus; assay type: cell-based; settings: S. aureus ATCC25923 C622 wt Gram+, 24 h
Procedure: as §3

S. pyogenes C721 = assay: MIC microtitre broth dilution, S. pyogenes; assay type: cell-based; settings: S. pyogenes C721 wt Gram+, Todd Hewitt broth
Procedure: as §3

human fibroblasts = assay: Cell proliferation of fibroblasts; assay type: cell-based; settings: Fibroblast, 72 hours, CYQUANT, read-out: IC50 cell proliferation of fibroblasts
Procedure, shortened: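 Human fibroblasts plated at 600 cells/well, attached overnight, then exposed to drug in triplicate for 72 h at 37°C. Cell content read with CYQUANT GR dye in lysis buffer after 3-5 min at room temperature.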

Smooth muscle cells = assay: Proliferation of smooth muscle cells; assay type: cell-based; settings: 72 hours, CYQUANT; read-out: IC50 proliferation of smooth muscle cells
Procedure: Smooth muscle cells at 70-90% confluency were trypsinized, replated at 600 cells/well in media in 96-well plates and allowed to attachment overnight. Paclitaxel was prepared in DMSO at a concentration of 10^−2 M and diluted 10-fold to give a range of stock concentrations (10^−8 M to 10^−2 M). […] Each drug concentration was tested in triplicate wells. Plates containing cells and paclitaxel were incubated at 37° C. for 72 hours.
To terminate the assay, the media was removed by gentle aspiration A 1/400 dilution of CYQUANT 400×GR dye indicator (Molecular Probes; Eugene, Oreg.) was added to 1× Cell Lysis buffer, and 200 μL of the mixture was added to the wells of the plate. Plates were incubated at room temperature, protected from light for 3-5 minutes.

[7] = THP-1 cells stimulated with opsonized zymosan, 24 hours
[8] = Homo sapiens, THP-1 cells stimulated with opsonized zymosan, 24 hours

rapamycin was tested. Which IC50 [1] did it give?
Its IC50 is 4 nM.

And the IC50 [2, 7]?
The IC50 was 0.05 nM.

And the IC50 [3, 7]?
The IC50 was 0.48 nM.

And the IC50 [4, 7]?
The IC50 was 51 nM.

Sc1ncc2[nH]cnc2n1 [2-mercaptopurine] was tested. Which Minimum inhibitory concentration (E. coli UB1005 C498) did it give?
Its Minimum inhibitory concentration is “N”.

O=c1[nH]cc(F)c(=O)[nH]1 [5-fluorouracil] was tested. Which Minimum inhibitory concentration (E. coli UB1005 C498) did it give?
The Minimum inhibitory concentration was 10^−6 Molar.

What about the Minimum inhibitory concentration (S. epidermidis C621) of the same compound?
Its Minimum inhibitory concentration is 10^−7 Molar.

What about the Minimum inhibitory concentration [5] of the same compound?
Its Minimum inhibitory concentration is 10^−6 Molar.

And the Minimum inhibitory concentration [6]?
The Minimum inhibitory concentration was 10^−5 Molar.

What about the Minimum inhibitory concentration (S. aureus ATCC25923 C622) of the same compound?
The Minimum inhibitory concentration was 10^−7 Molar.

And the Minimum inhibitory concentration (S. pyogenes C721)?
The Minimum inhibitory concentration was 10^−4 Molar.

Which IC50 ([1]; Homo sapiens) does the source give for O=C(CC1NCCCC1O)Cn1cnc2cc(Br)c(Cl)cc2c1=O (stereo not drawn) [halofuginone] here?
The IC50 was 641 nM.

And the IC50 [2, 8]?
Its IC50 is 9 nM.

And the IC50 (human fibroblasts)?
Its IC50 is 10 to 100 nM.

What about the IC50 (Smooth muscle cells) of the same compound?
Its IC50 is 81 nM.

What about the IC50 ([3]; Homo sapiens, THP-1, 24 h) of the same compound?
Its IC50 is 919 nM.

With O=C1c2c(O)ccc(O)c2C(=O)c2c(NCCNCCO)ccc(NCCNCCO)c21 [mitoxantrone, 9,10-anthracenedione, 1,4-dihydroxy-5,8-bis((2-((2-hydroxyethyl)amino)ethyl)amino)-] as the compound, how does the Minimum inhibitory concentration (E. coli UB1005 C498) read?
The Minimum inhibitory concentration was 10^−5 Molar.

What about the IC50 [2, 8] of the same compound?
The IC50 was 62 nM.

What about the IC50 (Smooth muscle cells) of the same compound?
Its IC50 is 1 nM.

What does the source list for CC[C@@]1(O)C(=O)OCc2c1cc1n(c2=O)Cc2cc3c(CN(C)C)c(O)ccc3nc2-1 [topotemay, Topotecan]?
IC50 [1]: 257 nM; IC50 [2, 7]: 514 nM; IC50 (Smooth muscle cells): 51 nM; IC50 [3, 7]: 509 nM

With O=C1c2ccccc2-[n+]2ccc3c([nH]c4ccccc43)c21 [fascaplycin, Fascaplysin] as the compound, how does the IC50 ([2]; Homo sapiens, THP-1, 24 h) read?
Its IC50 is 215 nM.

What about the IC50 (human fibroblasts) of the same compound?
Its IC50 is 600 to 1200 nM.

What about the IC50 (Smooth muscle cells) of the same compound?
The IC50 was 510 nM.

And the IC50 ([3]; Homo sapiens, THP-1, 24 h)?
Its IC50 is 425 nM.

What about the IC50 ([4]; Homo sapiens, THP-1, 24 h) of the same compound?
Its IC50 is 701 nM.

With COc1cccc2c1C(=O)c1c(O)c3c(c(O)c1C2=O)C[C@@](O)(C(C)=O)C[C@@H]3O[C@H]1C[C@H](N)[C@H](O)[C@H](C)O1 [daunorubicin] as the compound, how does the IC50 [1] read?
The IC50 was 421 nM.

What about the IC50 [2, 7] of the same compound?
Its IC50 is 570 nM.

And the IC50 (Smooth muscle cells)?
The IC50 was 50 nM.

And the IC50 [3]?
Its IC50 is 517 nM.

What about the IC50 [4, 7] of the same compound?
Its IC50 is 195 nM.

For CO[C@@H]1[C@H](O)C[C@@H](O[C@@H]2C[C@H](Oc3cc4cc5c(c(O)c4c(O)c3C)C(=O)[C@@H](O[C@H]3C[C@@H](O[C@H]4C[C@@H](O[C@H]6C[C@](C)(O)[C@@H](OC(C)=O)[C@H](C)O6)[C@H](O)[C@@H](C)O4)[C@H](O)[C@@H](C)O3)[C@H]([C@H](OC)C(=O)[C@@H](O)[C@@H](C)O)C5)O[C@H](C)[C@@H]2OC(C)=O)O[C@@H]1C [chromomycin A3], which IC50 [1] is on record?
The IC50 was 36 nM.

And the IC50 [2, 7]?
The IC50 was 37 nM.

What about the IC50 (Smooth muscle cells) of the same compound?
Its IC50 is 12 nM.

And the IC50 [3]?
Its IC50 is 148 nM.

What about the IC50 [4, 7] of the same compound?
The IC50 was 394 nM.

With COc1cccc2c1C(=O)c1c(O)c3c(c(O)c1C2=O)C[C@@](O)(C(=O)CO)C[C@@H]3O[C@H]1C[C@H](N)[C@@H](O)[C@H](C)O1 [epirubicin hydrochloride] as the compound, how does the IC50 [1] read?
The IC50 was 654 nM.

What about the IC50 (Smooth muscle cells) of the same compound?
The IC50 was 19 nM.

What about the IC50 [3, 7] of the same compound?
The IC50 was 774 nM.

How did the Minimum inhibitory concentration (E. coli UB1005 C498) turn out when Sc1ncnc2nc[nH]c12 [6-mercaptopurine] was run?
The Minimum inhibitory concentration was “N”.
